From patent US8946203B2, “Benzodioxane inhibitors of leukotriene production” (Boehringer Ingelheim International GmbH, priority 2012, dated 2015)
Like-named read-outs stand apart in the source and are kept apart here.

Experiments:
[1] = tested on: synthesis of LTB4 in human whole blood; assay: human whole blood (HWB) assay, LTB4 production inhibition after calcimycin stimulation; type: cell-based; conditions: heparinized human whole blood, calcimycin 20 μM, plasma LTB4 by HTRF
Procedure, shortened: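 Heparinized human whole blood preincubated with compound 15 min at 37 °C, then stimulated with 20 μM (final) calcimycin for 30 min at 37 °C. Plasma LTB4 measured by antibody-based HTRF; IC50 reported.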

human LTA4 hydrolase = target: T1, human LTA4 hydrolase (Homo sapiens, UniProt P09960); assay: LTA4H Enzyme assay (cleavage of Arg-AMC, fluorescence); type: biochemical
T1 sequence (P09960 1-611): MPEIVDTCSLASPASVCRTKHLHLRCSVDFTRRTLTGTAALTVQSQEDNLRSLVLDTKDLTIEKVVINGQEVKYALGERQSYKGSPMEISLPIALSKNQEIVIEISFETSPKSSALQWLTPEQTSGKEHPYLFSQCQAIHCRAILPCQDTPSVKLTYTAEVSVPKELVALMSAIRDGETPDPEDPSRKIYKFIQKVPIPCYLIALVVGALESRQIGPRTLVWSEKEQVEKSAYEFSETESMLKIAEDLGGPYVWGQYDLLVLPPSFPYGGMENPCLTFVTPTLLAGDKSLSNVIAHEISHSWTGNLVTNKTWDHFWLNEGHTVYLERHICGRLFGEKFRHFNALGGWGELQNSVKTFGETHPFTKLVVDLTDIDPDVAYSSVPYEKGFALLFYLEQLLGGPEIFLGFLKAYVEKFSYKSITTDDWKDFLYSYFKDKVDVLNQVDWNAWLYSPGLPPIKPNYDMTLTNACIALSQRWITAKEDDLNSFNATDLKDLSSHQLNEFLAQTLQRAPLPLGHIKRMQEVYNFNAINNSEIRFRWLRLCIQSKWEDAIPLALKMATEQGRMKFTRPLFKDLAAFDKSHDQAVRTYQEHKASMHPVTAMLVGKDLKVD
Procedure, shortened: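 Peptidase activity of human LTA4H (1 nM final) on Arg-AMC (50 μM final), with compound, 1 h at room temperature. Buffer: 50 mM Tris-HCl pH 7.5, 100 mM KCl, 0.5% BSA.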

[2] = LTA4H Enzyme 1 nM, Arg-AMC substrate 50 μM, room temperature 1 h, fluorescence, read-out: IC50 values of LTA4H Enzyme assay

SMILES	IC50 [1] [nM]	IC50 (human LTA4 hydrolase; [2]) [nM]	IC50 (human LTA4 hydrolase) [nM]
NC(=O)N1CC2(CCN(Cc3ccc([C@H]4COc5cccnc5O4)cc3)CC2)c2ccccc21 [Example 282]	61		0.17
O[C@H]1CCN(Cc2ccc(C3COc4ccccc4O3)cc2)C1 (mixture of isomers) [Example 9, (3S)-1-[4-(2,3-dihydro-1,4-benzodioxin-2-yl)benzyl]pyrrolidin-3-ol]	285	1.49	
CS(=O)(=O)N1CCC(NCc2ccc([C@H]3COc4ccccc4O3)cc2)CC1 [Example 174, N-{4-[(2S)-2,3-dihydro-1,4-benzodioxin-2-yl]benzyl}-1-(methylsulfonyl)piperidin-4-amine]	268	0.6	
CC(=O)N1CC2CCC(C1)N2Cc1ccc([C@H]2COc3cccnc3O2)cc1 [Example 271, 1-{8-[(S)-4-(2,3-Dihydro-[1,4]dioxino[2,3-b]pyridin-3-yl)-benzyl]-3,8-diaza-bicyclo[3.2.1]oct-3-yl}-ethanone]	110	0.65	
Nc1nc2c(s1)CN(Cc1ccc([C@H]3COc4cccnc4O3)cc1)CC2 [Example 258, 5-[(S)-4-(2,3-Dihydro-[1,4]dioxino[2,3-b]pyridin-3-yl)-benzyl]-4,5,6,7-tetrahydro-thiazolo[5,4-c]pyridin-2-ylamine]	210	0.37	
[O-][S+]1CCN(Cc2ccc([C@H]3COc4cccnc4O3)cc2)CC1 [Example 295, (S)-3-[4-(1-Oxo-1lambda4-thiomorpholin-4-ylmethyl)-phenyl]-2,3-dihydro-[1,4]dioxino[2,3-b]pyridine]	120	0.79	
CCN(CC)Cc1ccc([C@H]2COc3cccnc3O2)cc1 [Example 141, N-{4-[(3S)-2,3-dihydro[1,4]dioxino[2,3-b]pyridin-3-yl]benzyl}-N-ethylethanamine]	33	0.26	
CC1CCCCN1Cc1ccc([C@H]2COc3ccccc3O2)cc1 (stereo partly drawn) [Example 68, 1-{4-[(2S)-2,3-dihydro-1,4-benzodioxin-2-yl]benzyl}-2-methylpiperidine]	81	0.1	
O=C(C1CCN(Cc2ccc([C@H]3COc4cccnc4O3)cc2)CC1)N1CC(O)C1 [Example 286, {1-[(S)-4-(2,3-Dihydro-[1,4]dioxino[2,3-b]pyridin-3-yl)-benzyl]-piperidin-4-yl}-(3-hydroxy-azetidin-1-yl)-methanone]	190	0.35	
O=C1CCCN1CC1CCCN(Cc2ccc(C3COc4ccccc4O3)cc2)C1 (racemic) [Example 10, 1-({1-[4-(2,3-dihydro-1,4-benzodioxin-2-yl)benzyl]piperidin-3-yl}methyl)pyrrolidin-2-one]	352	0.75	
CN(Cc1ccc([C@H]2COc3cccnc3O2)cc1)C1CCCC1 [Example 142, N-{4-[(3S)-2,3-dihydro[1,4]dioxino[2,3-b]pyridin-3-yl]benzyl}-N-methylcyclopentanamine]	24	0.17	
c1cnc2c(c1)OC[C@H](c1ccc(CN3CCCC3)cc1)O2 [Example 126, (3S)-3-[4-(pyrrolidin-1-ylmethyl)phenyl]-2,3-dihydro[1,4]dioxino[2,3-b]pyridine]	32	0.18	
O=C1CCCN1CC1CCN(Cc2ccc([C@H]3COc4ccccc4O3)cc2)CC1 [Example 99, 1-[(1-{4-[(2S)-2,3-dihydro-1,4-benzodioxin-2-yl]benzyl}piperidin-4-yl)methyl]pyrrolidin-2-one]	95	0.37	
NC(=O)NC1CCN(Cc2ccc([C@H]3COc4cccnc4O3)cc2)CC1 [Example 187, 1-(1-{4-[(3S)-2,3-dihydro[1,4]dioxino[2,3-b]pyridin-3-yl]benzyl}piperidin-4-yl)urea]	177	0.07	
NC(=O)c1nnc2n1CCN(Cc1ccc([C@H]3COc4cccnc4O3)cc1)CC2 [Example 245, 6-[(S)-4-(2,3-dihydro-[1,4]dioxino[2,3-b]pyridin-3-yl)-benzyl]-5,6,7,8-tetrahydro-4H-1,2,3a,6-tetraaza-azulene-3-carboxylic acid amide]	130	0.32	
FC1CCN(Cc2ccc([C@H]3COc4cccnc4O3)cc2)CC1 [Example 155, (3S)-3-{4-[(4-fluoropiperidin-1-yl)methyl]phenyl}-2,3-dihydro[1,4]dioxino[2,3-b]pyridine]	95	0.28	
CC(=O)NC1CCN(Cc2ccc([C@H]3COc4cccnc4O3)cc2)CC1 [Example 160, N-(1-{4-[(3S)-2,3-dihydro[1,4]dioxino[2,3-b]pyridin-3-yl]benzyl}piperidin-4-yl)acetamide]	28	0.18	
COC1CCN(Cc2ccc([C@H]3COc4cccnc4O3)cc2)C1 (stereo partly drawn) [Example 168, (3S)-3-{4-[(3-methoxypyrrolidin-1-yl)methyl]phenyl}-2,3-dihydro[1,4]dioxino[2,3-b]pyridine]	39	0.31	
CC(=O)N(C)C1CCN(Cc2ccc([C@H]3COc4ccccc4O3)cc2)C1 (stereo partly drawn) [Example 83, N-(1-{4-[(2S)-2,3-dihydro-1,4-benzodioxin-2-yl]benzyl}pyrrolidin-3-yl)-N-methylacetamide]	33	0.13	

More lines, main results first:

IC50 [1] [nM]	IC50 (human LTA4 hydrolase; [2]) [nM]	SMILES	IC50 (human LTA4 hydrolase) [nM]
110	0.7	O=C(CO)N1CCN(Cc2ccc([C@H]3COc4cccnc4O3)cc2)CC1 [Example 253, 1-{4-[(S)-4-(2,3-Dihydro-[1,4]dioxino[2,3-b]pyridin-3-yl)-benzyl]-piperazin-1-yl}-2-hydroxy-ethanone]	
93	0.34	CC(=O)NCC1CCN(Cc2ccc([C@H]3COc4cccnc4O3)cc2)CC1 [Example 279, N-{1-[(S)-4-(2,3-Dihydro-[1,4]dioxino[2,3-b]pyridin-3-yl)-benzyl]-piperidin-4-ylmethyl}-acetamide]	
26	0.09	CS(=O)(=O)NC1CCN(Cc2ccc([C@H]3COc4cccnc4O3)cc2)CC1 [Example 190, N-(1-{4-[(3S)-2,3-dihydro[1,4]dioxino[2,3-b]pyridin-3-yl]benzyl}piperidin-4-yl)methanesulfonamide]	
110	0.49	CS(=O)(=O)CC(=O)N1C[C@@H]2C[C@H]1CN2Cc1ccc([C@H]2COc3cccnc3O2)cc1 [Example 256, 1-{(1S,4S)-5-[(S)-4-(2,3-Dihydro-[1,4]dioxino[2,3-b]pyridin-3-yl)-benzyl]-2,5-diaza-bicyclo[2.2.1]hept-2-yl}-2-methanesulfonyl-ethanone]	
71	0.09	NC(=O)N1CC2CN(Cc3ccc([C@H]4COc5cccnc5O4)cc3)CC2C1 (stereo partly drawn) [Example 272, 5-[(S)-4-(2,3-Dihydro-[1,4]dioxino[2,3-b]pyridin-3-yl)-benzyl]-hexahydro-pyrrolo[3,4-c]pyrrole-2-carboxylic acid amide]	
150	0.88	CC(=O)NCCC(=O)N1CCN(Cc2ccc([C@H]3COc4cccnc4O3)cc2)CC1 [Example 288, N-[3-[4-[[4-[(3S)-2,3-dihydro-[1,4]dioxino[2,3-b]pyridin-3-yl]phenyl]methyl]piperazin-1-yl]-3-oxo-propyl]acetamide]	
100	0.15	NC(=O)COC1CCN(Cc2ccc([C@H]3COc4cccnc4O3)cc2)CC1 [Example 274, 2-{1-[(S)-4-(2,3-Dihydro-[1,4]dioxino[2,3-b]pyridin-3-yl)-benzyl]-piperidin-4-yloxy}-acetamide]	
52	0.24	c1cncc(OC2CCN(Cc3ccc([C@H]4COc5cccnc5O4)cc3)CC2)c1 [Example 293, (S)-3-{4-[4-(Pyridin-3-yloxy)-piperidin-1-ylmethyl]-phenyl}-2,3-dihydro-[1,4]dioxino[2,3-b]pyridine]	
149	0.49	COCC(=O)NC1CCN(Cc2ccc([C@H]3COc4ccccc4O3)cc2)CC1 [Example 219, N-(1-{4-[(2S)-2,3-dihydro-1,4-benzodioxin-2-yl]benzyl}piperidin-4-yl)-2-methoxyacetamide]	
240	1.2	CC1(O)CCN(Cc2ccc([C@H]3COc4cccnc4O3)cc2)CC1 [Example 276, 1-[(S)-4-(2,3-Dihydro-[1,4]dioxino[2,3-b]pyridin-3-yl)-benzyl]-4-methyl-piperidin-4-ol]	
130	0.49	CS(=O)(=O)NC[C@@H]1[C@H]2CN(Cc3ccc([C@H]4COc5cccnc5O4)cc3)C[C@@H]12 [Example 263, N-{(1α,5α,6α)-3-[(S)-4-(2,3-Dihydro-[1,4]dioxino[2,3-b]pyridin-3-yl)-benzyl]-3-aza-bicyclo[3.1.0]hex-6-ylmethyl}-methanesulfonamide]	
